{"source": "patent US20130196989A1", "about": "“COMPOSITIONS AND METHODS FOR INDUCING CELL DEDIFFERENTIATION” (The Scripps Research Institute, priority 2003, published 2013)", "key": {"[1]": {"tested_on": "C2C12 myoblast cells", "conditions": "5 μM reversine, day four of compound treatment"}, "[2]": {"tested_on": "C2C12 myoblast cells", "conditions": "5 μM compound for four days, then seven days in osteogenic inducing medium; BBTP substrate", "experimental": "C2C12 cells (ATCC CRL-1772) are cultured in DMEM (Gibco) supplemented with 10% fetal bovine serum (HyClone) at 37° C. in 5% CO2.\nFor the small molecule screen, proliferating C2C12 cells are plated into black 384-well tissue culture plates (Greiner) at a density of 1,000 cells/well in DMEM with 10% FBS. […] After the cells are treated with test compounds for four days, the test compound is removed and the cell culture medium is changed to osteogenic differentiation medium (ODM) containing 50 μg/ml ascorbic acid 2-phosphate, 0.1 μM dexamethasone and 10 mM β-glycerophosphate. Cell culture medium is typically changed every two days. After seven additional days of culture in ODM, the ODM is removed and cells are lysed by incubation in 10 μL passive lysis buffer (Promega) for 10 min, followed by addition of 10 μL alkaline phosphatase substrate solution (AttoPhos, Promega). After a 15 minute room temperature incubation, fluorescence intensity is read on an Acquest (Molecular Devices) as directed by the manufacturer. […]"}, "[3]": {"tested_on": "C2C12 myoblast cells", "description": "Mammalian cells (e.g., C2C12 myoblast cells) are treated with a suitable amount of a test compound (e.g., 5 μM reversine) in DMEM supplemented with 10% FBS for four days. The compound is then removed and medium is changed to ODM every two days. After seven days following induction of osteogenesis, the cells are washed with PBS (200 μL, 3 times) and fixed with 10% formalin solution (Sigma) for 20 min. The fixed cells are then washed with PBS (200 μL, 3 times) and stained with the Alkaline Phosphatase Staining Kit 86R (Sigma) as directed by the manufacturer. Images are taken on a Nikon Eclipse TE2000 microscope at 200 fold magnification.\n(§1) After four days of treatment with reversine, the compound was removed and cells were then grown in osteogenic differentiation medium (ODM) or adipogenic differentiation medium (ADM)."}, "[4]": {"tested_on": "C2C12 myoblasts cells", "experiment": "Cell death at effective concentration", "description": "as §1"}, "[5]": {"tested_on": "C2C12 cells", "conditions": "single-cell colonies, 6 days of treatment, portions cultured in ODM and ADM", "description": "Clonal analysis is used to verify that reversine can induce dedifferentiation at the single cell level. C2C12 cells were cultured from a single cell and treated with reversine. After 6 days of treatment, each colony was divided into two portions. One portion was cultured in ODM and another portion was cultured in ADM. The cells were then analyzed using the staining assays described in Example 1."}, "[6]": {"tested_on": "C2C12 myoblast cells", "description": "Mammalian cells (e.g., C2C12 myoblast cells) were treated with a suitable amount of a test compound (e.g., 5 μM reversine) in DMEM supplemented with 10% FBS for four days. The compound was then removed and medium was changed to adipogenic differentiation medium (ADM) containing 0.5 mM 3-isobutyl-1-methylxanthine, 2.5 μg/ml insulin, and 0.5 μM dexamethasone. Typically, the ADM is replaced every two days. After seven days following induction of adipogenesis, the cells are washed with PBS (200 μL, 3 times) and fixed with 10% formalin solution (Sigma) for 10 min. The fixed cells are then washed with PBS (200 μL, 3 times) and stained with the 0.7% Oil Red O (Sigma) as directed by the manufacturer. Images are taken on a Nikon Eclipse TE2000 microscope at 200 fold magnification.\nas §1", "remark": "listed apart in the source"}}, "data": [{"smiles": "c1nc2nc(Nc3ccc(N4CCOCC4)cc3)nc(NC3CCCCC3)c2[nH]1", "note": "[Compound A, 2-(4-Morpholinoanilino)-6-cyclohexylamino-purine]", "values": [{"measurement": "myogenic specific markers such as MyoD and myosin", "setting": "[1]", "result": "began to disappear"}, {"measurement": "myotube formation", "setting": "[1]", "result": "completely inhibited"}, {"measurement": "level of ALP activity relative to the DMSO control treatment", "setting": "[2]", "result": 7, "unit": "fold"}, {"measurement": "cells stained positive for ALP", "setting": "[3]; four days of treatment, compound removed, ODM conditions, end of day seven", "result": 35, "unit": "%"}, {"measurement": "osteogenesis activity of compound alone", "setting": "[3]; in the absence of ODM", "result": "no osteogenesis activity"}, {"measurement": "cell death", "setting": "[4]", "result": "no significant cell death"}, {"measurement": "effective concentration", "setting": "[4]; C2C12 dedifferentiation", "result": "0.5 to 5", "unit": "µM"}, {"measurement": "colonies determined to be multipotent", "setting": "[5]", "result": "56 of 97"}, {"measurement": "cells with fat cell morphology, stained positive with Oil Red O", "setting": "[6]; four days of treatment, compound removed, ADM condition, end of day seven", "result": 40, "unit": "%"}, {"measurement": "adipogenesis activity of compound alone", "setting": "[6]; in the absence of ADM", "result": "no adipogenesis activity"}]}]}
